Results as given in patent US5763443A, “MDR resistance treatment and novel pharmaceutically active riminophenazines” (priority 1994, dated 1998).
Values after ≈ are worked out from the molar mass of the structure shown. Where two headings read alike, the source gives them in different places.

How the values were obtained:
[1] = system: multi-drug resistant (MDR) lung carcinoma cell line H69/LX4; experiment: cells; details: for IC50: Homo sapiens; for INCREASED SENSITIVITY H69/Lx4: Table VIII, values equal IC50 NONE / IC50 with VB 25 ng/ml of Table VII, 10080 min
Protocol: The riminophenazines of the above formula (I), contain an imino group. […] The potency of compounds of the above general formula, as inhibitors of multi-drug resistance, was assessed by sensitization of a P-glycoprotein positive cell line to drugs associated with this form of resistance. A human small cell lung cancer cell line H 69/P as well as a multi-drug resistance (MDR) sub-line H69/LX4 were used. These cell lines were obtained from the Medical Research Council Clinical Oncology and Radiotherapeutics Unit, Hills Road, Cambridge, England. The H69/LX4 line was selected in vitro by progressive exposure to increasing concentrations of doxorubicin in order to increase P-glycoprotein expression.
The cell lines used were human small cell lung cancer cell line HP69/P and a multi-drug resistant (MDR) sub-line H69/LX4, both of which were supplied by the MRC Clinical Oncology and Radiotherapeutics Unit, Hills Road, Cambridge, England. The maintenance of the cell lines and drug response assays was done as described by Twentyman et al in British Journal of Cancer Volume 65 pages 335-340. The H69/LX4 line was originally described by Twentyman et al in British Journal of Cancer Volume 53, pages 529-637 (1986).
The data in parenthesis represents fold sensitivity compared with the chemotherapeutic agent without the MDR inhibitor.
The results obtained, are illustrated graphically in FIGS. 4 to 7 of the accompanying drawings.
(§1) The general procedure set forth above was followed, i.e. 7 days incubation in the4 presence of doxorubicin at 12,5 ng/ml or vinblastine at 25 or 3 ng/ml.
(§2) The effects were examined over a seven (7) day exposure to different concentrations of B4119 and B4125 on the sensitivity of a doxorubicin resistant leukaemia cell line (K562/MMB) and a lung carcinoma cell line (H69/LX4) to doxorubicin (dox) and vinblastine (VB) using the MTT assay.

[2] = system: MDR leukaemia cell line K562/MMB; experiment: cells; details: for INCREASED SENSITIVITY K 562/MMB: Table VIII, values equal IC50 NONE / IC50 with VB 3 ng/ml of Table VII, 10080 min; for IC50: Homo sapiens; for MDR activity / sensitivity against cell line K562/MMP: compared with known reference compound B4100
Protocol: A third cell line (562/MMB) used was a MDR leukemia cell line selected in vitro by progressive exposure to increasing concentrations of vinblastine in order to increase P-glycoprotein expression. This cell line was developed in the Department of Immunology, University of Pretoria from K562 (ATCC CCL 243) supplied by Highveld Biological (Pty) Ltd, Sandton.
as §1, §2

[3] = 168 h, read-out: IC 50 H69/Lx4 NONE
[4] = read-out: IC 50 H69/Lx4 DOX 12 ng/ml
[5] = read-out: IC 50 H69/Lx4 VB 25 ng/ml
[6] = K562, 168 h, read-out: IC 50 K562/MMB NONE, Table VII, riminophenazine alone, 7 day
[7] = K562, read-out: IC 50 K562/MMB DOX 12 ng/ml, Table VII, with doxorubicin 12 ng/ml
[8] = K562, read-out: IC 50 K562/MMB VB 3 ng/ml, Table VII, with vinblastine 3 ng/ml

Structure (SMILES) | IC50 [1, 3] | IC50 [1, 4] | IC50 [1, 5] | INCREASED SENSITIVITY H69/Lx4 [1] | INCREASED SENSITIVITY K 562/MMB [2] | IC50 [2, 8] | MDR activity / sensitivity against cell line K562/MMP [2] | other results
CC1(C)CC(N=c2cc3n(-c4ccc(Cl)cc4)c4ccccc4nc-3cc2Nc2ccc(Cl)cc2)CC(C)(C)N1 [Compound B3786] | 0.608 µg/mL (≈ 1.07 µM) | 0.597 µg/mL (≈ 1.05 µM) | 0.169 µg/mL (≈ 0.296 µM) | 3.60 | – | – | – | –
CC1(C)CC(N=c2cc3n(-c4ccccc4)c4ccccc4nc-3cc2Nc2ccccc2)CC(C)(C)N1 [Compound B3962, N,5-bis(phenyl)-3,5-dihydro-3-[(2',2',6',6'-tetramethyl-4-piperidyl)imino]-2-phenazinamine] | 0.563 µg/mL (≈ 1.12 µM) | 0.427 µg/mL (≈ 0.851 µM) | 0.262 µg/mL (≈ 0.522 µM) | 2.15 | 4.07 | – | – | –
CC1(C)CC(N=c2cc3n(-c4ccccc4)c4ccc(Cl)cc4nc-3cc2Nc2ccccc2)CC(C)(C)N1 [Compound B4019] | 1.03 µg/mL (≈ 1.92 µM) | 0.771 µg/mL (≈ 1.44 µM) | 0.488 µg/mL (≈ 0.91 µM) | 2.11 | – | – | – | –
Cc1ccc(Nc2cc3nc4ccccc4n(-c4ccc(C)cc4)c-3cc2=NC2CC(C)(C)NC(C)(C)C2)cc1 [Compound B4070, N,5-bis(4-methylphenyl)-3,5-dihydro-3-[(2',2',6',6'-tetramethyl-4-piperidyl)imino]-2-phenazinamine] | 0.525 µg/mL (≈ 0.991 µM) | 0.312 µg/mL (≈ 0.589 µM) | 0.2 µg/mL (≈ 0.378 µM) | 2.63 | 2.94 | 0.054 µg/mL (≈ 0.102 µM) | – | IC50 [2, 6]: 0.159 µg/mL (≈ 0.3 µM); IC50 ([2]; K562, 168 h, read-out: IC 50 of riminophenazine, Doxorubicin, Table IV, K562/MMB, with doxorubicin 12 ng/ml, 7 day): 0.193 µg/mL (≈ 0.364 µM); IC50 ([2]; K562, 168 h, read-out: IC 50 of riminophenazine, None, Table IV, K562/MMB, riminophenazine alone, 7 day, mean of 2 experiments): 0.159 µg/mL (≈ 0.3 µM); IC50 ([2]; K562, 168 h, read-out: IC 50 of riminophenazine, Vinblastine, Table IV, K562/MMB, with vinblastine 3 ng/ml, 7 day): 0.054 µg/mL (≈ 0.102 µM); IC50 [2, 7]: 0.193 µg/mL (≈ 0.364 µM)
CC1(C)CC(N=c2cc3n(-c4ccc(Cl)cc4)c4ccc(Cl)cc4nc-3cc2Nc2ccc(Cl)cc2)CC(C)(C)N1 [Compound B4090] | 1.5 µg/mL (≈ 2.48 µM) | 1.01 µg/mL (≈ 1.66 µM) | 0.266 µg/mL (≈ 0.44 µM) | 5.64 | 7.30 | 0.027 µg/mL (≈ 0.0446 µM) | exceptionally good activity | –
CC1(C)CC(N=c2cc3n(-c4ccc(Cl)c(Cl)c4)c4ccccc4nc-3cc2Nc2ccc(Cl)c(Cl)c2)CC(C)(C)N1 [Compound B4100, reference compound] | 0.798 µg/mL (≈ 1.25 µM) | 0.582 µg/mL (≈ 0.91 µM) | 0.125 µg/mL (≈ 0.195 µM) | 6.38 | 3.53 | – | – | –
CC1(C)CC(N=c2cc3n(-c4cccc(Cl)c4)c4ccccc4nc-3cc2Nc2cccc(Cl)c2)CC(C)(C)N1 [Compound B4112, N,5-bis(3-chlorophenyl)-3,5-dihydro-3-[(2',2',6',6'-tetramethyl-4-piperidyl)-imino]-2-phenazinamine] | 0.62 µg/mL (≈ 1.09 µM) | 0.175 µg/mL (≈ 0.307 µM) | 0.029 µg/mL (≈ 0.0508 µM) | 21.38 | 19.5 | 0.008 µg/mL (≈ 0.014 µM) | exceptionally good activity | direct cytotoxic activity [2]: direct cytotoxic activity in this cell line at reasonably low concentrations; IC50 [2, 6]: 0.156 µg/mL (≈ 0.273 µM); IC50 ([2]; K562, read-out: IC50, alone, Table V, K562/MMB (first value column, head not given)): 0.156 µg/mL (≈ 0.273 µM); IC50 ([2]; K562, read-out: IC50, plus VB, Table V, K562/MMB, vinblastine 3 ng/ml): 0.008 µg/mL; IC50 ([2]; K562, read-out: IC50, plus doxo, Table V, K562/MMB, doxorubicin 12 ng/ml): 0.066 µg/mL; IC50 [2, 7]: 0.066 µg/mL (≈ 0.116 µM); lowest concentration at which compound was active ([2]; K562/MMB, Example 6): 3 ng/mL; MDR activity against the cell line H69/LX4 [1]: very good activity; IC50 ([1]; read-out: IC50, plus VB): 0.029 µg/mL; IC50 ([1]; read-out: IC50, plus doxo): 0.62 µg/mL
CC1(C)CC(N=c2cc3n(-c4cccc(Cl)c4)c4ccc(Cl)cc4nc-3cc2Nc2cccc(Cl)c2)CC(C)(C)N1 [Compound B4123, N,5-bis(3-chlorophenyl)-8-chloro-3,5-dihydro-3[(2',2',6',6'-tetramethyl-4-piperidyl)-imino]-2-phenazinamine] | 1.18 µg/mL (≈ 1.94 µM) | 1.02 µg/mL (≈ 1.69 µM) | 0.251 µg/mL (≈ 0.415 µM) | 4.69 | 6.80 | 0.049 µg/mL (≈ 0.081 µM) | exceptionally good activity | –
CC1(C)CC(N=c2cc3n(-c4cccc(C(F)(F)F)c4)c4ccc(Cl)cc4nc-3cc2Nc2cccc(C(F)(F)F)c2)CC(C)(C)N1 [Compound B4127, N,5-bis(3-trifluoromethylphenyl)-8-chloro-3,5-dihydro-3-[(2',2',6',6'-tetramethyl-4-piperidyl)-imino]-2-phenazinamine] | 1.32 µg/mL (≈ 1.97 µM) | 1.31 µg/mL (≈ 1.95 µM) | 0.454 µg/mL (≈ 0.675 µM) | 2.91 | 6.07 | – | – | –
CC1(C)CC(N=c2cc3n(-c4ccc(Cl)cc4Cl)c4ccccc4nc-3cc2Nc2ccc(Cl)cc2Cl)CC(C)(C)N1 [Compound B4128, N,5-bis(2,4-dichiorophenyl)-3,5-dihydro-3-[(2',2',6',6'-tetramethyl-4-piperidyl)-imino]-2-phenazinamine] | 1.23 µg/mL (≈ 1.92 µM) | 0.782 µg/mL (≈ 1.22 µM) | 0.434 µg/mL (≈ 0.679 µM) | 2.82 | 6.49 | – | increased substantially and unexpectedly | –
CCN(CC)CCCN=c1cc2n(-c3ccc(Cl)c(Cl)c3)c3ccccc3nc-2cc1Nc1ccc(Cl)c(Cl)c1 [Compound B4154] | 1.33 µg/mL (≈ 2.17 µM) | 0.648 µg/mL (≈ 1.06 µM) | 0.378 µg/mL (≈ 0.616 µM) | 3.52 | 2.99 | – | – | –
CC(C)c1ccc(Nc2cc3nc4cc(Cl)ccc4n(-c4ccc(C(C)C)cc4)c-3cc2=NC2CC(C)(C)NC(C)(C)C2)cc1 [Compound B4159, N,5-bis(4-isopropylphenyl)-8-chloro-3,5-dihydro-3-[(2',2',6',6'-tetramethyl-4-piperidyl)-imino]-2-phenazinamine] | 1.55 µg/mL (≈ 2.5 µM) | 1.09 µg/mL (≈ 1.76 µM) | 0.268 µg/mL (≈ 0.432 µM) | 5.79 | 7.02 | – | exceptionally good activity | –
CC1(C)CC(N=c2cc3n(-c4ccc(Cl)c(C(F)(F)F)c4)c4ccccc4nc-3cc2Nc2ccc(Cl)c(C(F)(F)F)c2)CC(C)(C)N1 [Compound B4163, N,5-bis[(3-trifluoromethyl)-4-chlorophenyl]-3,5-dihydro-3-[(2',2',6',6'-tetramethylpiperidyl)-imino]-2-phenazinamine] | 0.972 µg/mL (≈ 1.38 µM) | 0.846 µg/mL (≈ 1.2 µM) | 0.281 µg/mL (≈ 0.398 µM) | 3.46 | 10.63 | 0.032 µg/mL (≈ 0.0453 µM) | increased substantially and unexpectedly | –
COc1ccc(Nc2cc3nc4ccccc4n(-c4ccc(OC)cc4)c-3cc2=NC2CC(C)(C)NC(C)(C)C2)cc1 [Compound B4174, N,5-bis(4-methoxyphenyl)-3,5-dihydro-3-[(2',2',6',6'-tetramethyl-4-piperidyl)-imino]-2-phenazinamine] | 0.462 µg/mL (≈ 0.822 µM) | 0.587 µg/mL (≈ 1.04 µM) | 0.535 µg/mL (≈ 0.952 µM) | 0.86 | 1.78 | – | – | –
CC1(C)CC(N=c2cc3n(-c4ccc(OC(F)(F)F)cc4)c4ccccc4nc-3cc2Nc2ccc(OC(F)(F)F)cc2)CC(C)(C)N1 [Compound B4177, N,5-bis(4-trifluoromethoxyphenyl)-3,5-dihydro-3-[(2',2',6',6'-tetramethyl-4-piperidyl)-imino)-2-phenazinamine] | 0.6 µg/mL (≈ 0.896 µM) | 0.852 µg/mL (≈ 1.27 µM) | 0.056 µg/mL (≈ 0.0836 µM) | 10.71 | – | – | – | MDR activity against the cell line H69/LX4 [1]: very good activity
CO[C@@]12[C@H](COC(N)=O)C3=C(C(=O)C(C)=C(N)C3=O)N1C[C@@H]1N[C@@H]12 [Mitomycin C, reference compound] | – | – | – | – | – | – | – | IC50 ([1]; 168 h, read-out: IC50 of chemotherapeutic agent, MDR inhibitor None): 0.1 µg/mL (≈ 0.299 µM)
